Experimental data published in US9737535B2, “Methods for treating cancer using TOR kinase inhibitor combination therapy comprising administering substituted pyrazino[2,3-b]pyrazines” (Signal Pharmaceuticals, LLC, priority 2014, dated 2017).

Tested on: BT-20
Assay: Anti-proliferation assay (ATPLite), Chalice synergy score
Format: cell-based
Parameters: scale not given here
Conditions: Compound 1 in combination with the named second active agent, 72 h, mean of n = 3 experiments in triplicate
Description: (§1) Cells were thawed from a liquid nitrogen preserved state.
(§2) The calculation for synergy score is provided below.
(§3) If T≧V0:100*[1−(T−V0)/(V−V0)]

In order of falling Synergy score:
1. NC1(c2ccc(-c3nc4ccn5c(=O)[nH]nc5c4cc3-c3ccccc3)cc2)CCC1 [MK-2206]  13.10
2. Clc1ccc(C2(c3ccc(-c4cn[nH]c4)cc3)CCNCC2)cc1 [AT7867]  3.07
3. C[C@@]1(C(=O)Nc2ccc(F)nc2)CCCN1c1nc(Nc2cc(C3CC3)n[nH]2)c2cccn2n1 [BMS-754807]  2.08

Tested on: HCC-1187
Assay: as above
Format: cell-based
Parameters: scale not given here
Conditions: Compound 1 in combination with the named second active agent, 72 h, mean of n = 3 experiments in triplicate
Description: as §1, §2, §3

In order of rising Synergy score:
1. Clc1ccc(C2(c3ccc(-c4cn[nH]c4)cc3)CCNCC2)cc1 [AT7867]  4.19
2. C[C@@]1(C(=O)Nc2ccc(F)nc2)CCCN1c1nc(Nc2cc(C3CC3)n[nH]2)c2cccn2n1 [BMS-754807]  9.68
3. NC1(c2ccc(-c3nc4ccn5c(=O)[nH]nc5c4cc3-c3ccccc3)cc2)CCC1 [MK-2206]  10.60

Tested on: HCC-1500
Assay: as above
Format: cell-based
Parameters: scale not given here
Conditions: Compound 1 in combination with the named second active agent, 72 h, mean of n = 3 experiments in triplicate
Description: as §1, §2, §3

In order of rising Synergy score:
1. Clc1ccc(C2(c3ccc(-c4cn[nH]c4)cc3)CCNCC2)cc1 [AT7867]  2.00
2. NC1(c2ccc(-c3nc4ccn5c(=O)[nH]nc5c4cc3-c3ccccc3)cc2)CCC1 [MK-2206]  2.02
3. C[C@@]1(C(=O)Nc2ccc(F)nc2)CCCN1c1nc(Nc2cc(C3CC3)n[nH]2)c2cccn2n1 [BMS-754807]  3.99

Tested on: MDA-MB-231
Assay: as above
Format: cell-based
Conditions: Compound 1 in combination with second active agent, mean self-cross + 2σ threshold 2.61
Description: as §1, §2, §3

In order of falling Synergy score:
1. Clc1ccc(C2(c3ccc(-c4cn[nH]c4)cc3)CCNCC2)cc1 [AT7867]  3.58
2. NC1(c2ccc(-c3nc4ccn5c(=O)[nH]nc5c4cc3-c3ccccc3)cc2)CCC1 [MK-2206]  3.39
3. C[C@@]1(C(=O)Nc2ccc(F)nc2)CCCN1c1nc(Nc2cc(C3CC3)n[nH]2)c2cccn2n1 [BMS-754807]  2.50

Tested on: BT-549
Assay: as above
Format: cell-based
Conditions: Compound 1 in combination with the named second active agent, 72 h, mean of n = 3 experiments in triplicate
Description: as §1, §2, §3

In order of falling Synergy score:
1. NC1(c2ccc(-c3nc4ccn5c(=O)[nH]nc5c4cc3-c3ccccc3)cc2)CCC1 [MK-2206]  9.17
2. Clc1ccc(C2(c3ccc(-c4cn[nH]c4)cc3)CCNCC2)cc1 [AT7867]  4.50
3. C[C@@]1(C(=O)Nc2ccc(F)nc2)CCCN1c1nc(Nc2cc(C3CC3)n[nH]2)c2cccn2n1 [BMS-754807]  2.14

Tested on: MCF7
Assay: as above
Format: cell-based
Conditions: Compound 1 in combination with second active agent, mean self-cross + 2σ threshold 3.07
Description: as §1, §2, §3

In order of rising Synergy score:
1. Clc1ccc(C2(c3ccc(-c4cn[nH]c4)cc3)CCNCC2)cc1 [AT7867]  1.39
2. C[C@@]1(C(=O)Nc2ccc(F)nc2)CCCN1c1nc(Nc2cc(C3CC3)n[nH]2)c2cccn2n1 [BMS-754807]  5.31
3. NC1(c2ccc(-c3nc4ccn5c(=O)[nH]nc5c4cc3-c3ccccc3)cc2)CCC1 [MK-2206]  12.10

Tested on: MDA-MB-157
Assay: as above
Format: cell-based
Conditions: Compound 1 in combination with second active agent, mean self-cross + 2σ threshold 4.68
Description: as §1, §2, §3

In order of rising Synergy score:
1. Clc1ccc(C2(c3ccc(-c4cn[nH]c4)cc3)CCNCC2)cc1 [AT7867]  3.19
2. NC1(c2ccc(-c3nc4ccn5c(=O)[nH]nc5c4cc3-c3ccccc3)cc2)CCC1 [MK-2206]  9.00
3. C[C@@]1(C(=O)Nc2ccc(F)nc2)CCCN1c1nc(Nc2cc(C3CC3)n[nH]2)c2cccn2n1 [BMS-754807]  9.46

Tested on: BT-474
Assay: as above
Format: cell-based
Conditions: Compound 1 in combination with the named second active agent, 72 h, mean of n = 3 experiments in triplicate
Description: as §1, §2, §3

In order of falling Synergy score:
1. NC1(c2ccc(-c3nc4ccn5c(=O)[nH]nc5c4cc3-c3ccccc3)cc2)CCC1 [MK-2206]  8.24
2. Clc1ccc(C2(c3ccc(-c4cn[nH]c4)cc3)CCNCC2)cc1 [AT7867]  1.83
3. C[C@@]1(C(=O)Nc2ccc(F)nc2)CCCN1c1nc(Nc2cc(C3CC3)n[nH]2)c2cccn2n1 [BMS-754807]  1.30

Tested on: Hs-578-T
Assay: as above
Format: cell-based
Conditions: Compound 1 in combination with second active agent, mean self-cross + 2σ threshold 4.09
Description: as §1, §2, §3

In order of rising Synergy score:
1. C[C@@]1(C(=O)Nc2ccc(F)nc2)CCCN1c1nc(Nc2cc(C3CC3)n[nH]2)c2cccn2n1 [BMS-754807]  3.32
2. Clc1ccc(C2(c3ccc(-c4cn[nH]c4)cc3)CCNCC2)cc1 [AT7867]  5.24
3. NC1(c2ccc(-c3nc4ccn5c(=O)[nH]nc5c4cc3-c3ccccc3)cc2)CCC1 [MK-2206]  12.60

Tested on: HCC-1937
Assay: as above
Format: cell-based
Conditions: Compound 1 in combination with the named second active agent, 72 h, mean of n = 3 experiments in triplicate
Description: as §1, §2, §3

In order of rising Synergy score:
1. C[C@@]1(C(=O)Nc2ccc(F)nc2)CCCN1c1nc(Nc2cc(C3CC3)n[nH]2)c2cccn2n1 [BMS-754807]  0.64
2. Clc1ccc(C2(c3ccc(-c4cn[nH]c4)cc3)CCNCC2)cc1 [AT7867]  1.72
3. NC1(c2ccc(-c3nc4ccn5c(=O)[nH]nc5c4cc3-c3ccccc3)cc2)CCC1 [MK-2206]  11.40

Tested on: HCC-1806
Assay: as above
Format: cell-based
Conditions: Compound 1 in combination with the named second active agent, 72 h, mean of n = 3 experiments in triplicate
Description: as §1, §2, §3

In order of falling Synergy score:
1. NC1(c2ccc(-c3nc4ccn5c(=O)[nH]nc5c4cc3-c3ccccc3)cc2)CCC1 [MK-2206]  7.33
2. C[C@@]1(C(=O)Nc2ccc(F)nc2)CCCN1c1nc(Nc2cc(C3CC3)n[nH]2)c2cccn2n1 [BMS-754807]  3.04
3. Clc1ccc(C2(c3ccc(-c4cn[nH]c4)cc3)CCNCC2)cc1 [AT7867]  2.04

Tested on: HCC70
Assay: as above
Format: cell-based
Conditions: Compound 1 in combination with second active agent; HCC-70; mean self-cross + 2σ threshold 3.45
Description: as §1, §2, §3

In order of falling Synergy score:
1. NC1(c2ccc(-c3nc4ccn5c(=O)[nH]nc5c4cc3-c3ccccc3)cc2)CCC1 [MK-2206]  13.30
2. Clc1ccc(C2(c3ccc(-c4cn[nH]c4)cc3)CCNCC2)cc1 [AT7867]  4.28
3. C[C@@]1(C(=O)Nc2ccc(F)nc2)CCCN1c1nc(Nc2cc(C3CC3)n[nH]2)c2cccn2n1 [BMS-754807]  2.08

Tested on: HCC-1428
Assay: as above
Format: cell-based
Conditions: Compound 1 in combination with the named second active agent, 72 h, mean of n = 3 experiments in triplicate
Description: as §1, §2, §3

In order of falling Synergy score:
1. NC1(c2ccc(-c3nc4ccn5c(=O)[nH]nc5c4cc3-c3ccccc3)cc2)CCC1 [MK-2206]  4.09
2. C[C@@]1(C(=O)Nc2ccc(F)nc2)CCCN1c1nc(Nc2cc(C3CC3)n[nH]2)c2cccn2n1 [BMS-754807]  4.09
3. Clc1ccc(C2(c3ccc(-c4cn[nH]c4)cc3)CCNCC2)cc1 [AT7867]  1.42

Tested on: MDA-MB-436
Assay: as above
Format: cell-based
Conditions: Compound 1 in combination with second active agent, mean self-cross + 2σ threshold 1.91
Description: as §1, §2, §3

In order of falling Synergy score:
1. NC1(c2ccc(-c3nc4ccn5c(=O)[nH]nc5c4cc3-c3ccccc3)cc2)CCC1 [MK-2206]  5.55
2. C[C@@]1(C(=O)Nc2ccc(F)nc2)CCCN1c1nc(Nc2cc(C3CC3)n[nH]2)c2cccn2n1 [BMS-754807]  2.00
3. Clc1ccc(C2(c3ccc(-c4cn[nH]c4)cc3)CCNCC2)cc1 [AT7867]  1.95

Tested on: MDA-MB-468
Assay: as above
Format: cell-based
Conditions: Compound 1 in combination with second active agent, mean self-cross + 2σ threshold 4.66
Description: as §1, §2, §3

In order of falling Synergy score:
1. NC1(c2ccc(-c3nc4ccn5c(=O)[nH]nc5c4cc3-c3ccccc3)cc2)CCC1 [MK-2206]  10.80
2. Clc1ccc(C2(c3ccc(-c4cn[nH]c4)cc3)CCNCC2)cc1 [AT7867]  3.60
3. C[C@@]1(C(=O)Nc2ccc(F)nc2)CCCN1c1nc(Nc2cc(C3CC3)n[nH]2)c2cccn2n1 [BMS-754807]  2.25
